In patent publication US12139477B2, “Compounds, salts thereof and methods for treatment of diseases” (ACADIA PHARMACEUTICALS INC., priority 2017, dated 2024):

Key:
hERG channel = molecular target: T1, hERG channel (Homo sapiens, UniProt Q12809); assay: hERG assay, whole cell recordings in CHO cells (AVIVA); assay type: cell-based; settings: CHO cells stably expressing hERG, pH 7.4
T1 construct: host or cells: CHO cells, stably transfected
Experimental: The most common mechanism for these adverse events is the inhibition of one or more cardiac potassium channels, in particular hERG. This current is important for cardiac myocyte repolarization and is a common target for drugs that prolong the QT interval. Test articles in this study were therefore characterized to determine their ability to inhibit the hERG channel. Ion channel activity was measured at AVIVA Biosciences Corporation (San Diego, CA), using a stably transfected Chinese Hamster Ovary (CHO) cell line expressing the hERG mRNA.
Cells: AVIVA's CHO cell line, which stably expresses hERG channels, was used for the study. Cells were cultured in DMEM/F12 containing 10% FBS, 1% penicillin/streptomycin and 500 μg/ml G418. Before testing, cells were harvested using Accumax (Innovative Cell Technologies).
Solutions: For electrophysiological recordings, the following solutions were used: External Solution: 2 mM CaCl2); 2 mM MgCl2; 4 mM KCl; 150 mM NaCl; 10 mM Glucose; 10 mM HEPES; 305-315 mOsm; pH 7.4 (adjusted with 5M NaOH); Internal Solution: 140 mM KCl; 10 mM MgCl2; 6 mM EGTA; 5 mM HEPES-Na; 5 mM ATP-Mg; 295-305 mOsm; pH 7.25 (adjusted with 1M KOH).
Electrophysiology: Whole cell recordings were performed using PX 7000A (Axon Instruments) with AVIVA's SealChip™ technology. Cells were voltage clamped at a holding potential of −80 mV. The hERG current was then activated by a depolarizing step to −50 mV for 300 ms. This first step at −50 mV was used as a baseline for measuring peak amplitude of the tail current. Next, a voltage step to +20 mV was applied for 5 s to activate the channels. Finally, a step back to −50 mV for 5 s removed activation and the deactivating tail current was recorded.
Test Article Handling and Dilutions: All test articles were prepared from 10 mM DMSO stock solutions provided by Sponsor. Solutions were mixed by sonication for 20 min, followed by vigorous vortexing. Prior to testing, compounds were diluted to test concentrations in glass vials using External Solution. Dilutions were prepared no longer than 20 min prior to use.
Electrophysiology Procedures: After achieving whole cell configuration, cells were monitored for 90 s to assess stability and then washed with External Solution for 66 s. The voltage protocol previously described was then applied to the cells every 12 s throughout the procedure. Only stable cells with recording parameters above threshold (see Quality Control section) were allowed to enter the drug addition procedure. External solution containing 0.1% DMSO (vehicle) was applied to the cells to establish a baseline. […] Test article solutions were added to cells in 4 separate additions. Cells were kept in test solution until effect of the test article reached steady state, to a maximum of 12 min. Next, 1 μM cisapride (positive control) was added. Finally, washout with External Solution was performed until the recovery current reached steady state.
Data Analysis: Data analysis was performed using DataXpress (Axon Instruments), Clampfit (Axon Instruments) and Origin (OriginLab Corporation) software.

5HT2A = 5HT2A (Homo sapiens, UniProt P28223); assay: Receptor Selection and Amplification (R-SAT) functional assay; assay type: cell-based; design: expressed in transfected cells; host or cells: NIH3T3 cells, pSI mammalian expression vector; settings: NIH3T3 cells; Ki from IC50 by Cheng and Prussoff; read-out: 5-HT2a (pKi) (R-SAT) (converted)
Chain of 5HT2A (P28223 whole entry): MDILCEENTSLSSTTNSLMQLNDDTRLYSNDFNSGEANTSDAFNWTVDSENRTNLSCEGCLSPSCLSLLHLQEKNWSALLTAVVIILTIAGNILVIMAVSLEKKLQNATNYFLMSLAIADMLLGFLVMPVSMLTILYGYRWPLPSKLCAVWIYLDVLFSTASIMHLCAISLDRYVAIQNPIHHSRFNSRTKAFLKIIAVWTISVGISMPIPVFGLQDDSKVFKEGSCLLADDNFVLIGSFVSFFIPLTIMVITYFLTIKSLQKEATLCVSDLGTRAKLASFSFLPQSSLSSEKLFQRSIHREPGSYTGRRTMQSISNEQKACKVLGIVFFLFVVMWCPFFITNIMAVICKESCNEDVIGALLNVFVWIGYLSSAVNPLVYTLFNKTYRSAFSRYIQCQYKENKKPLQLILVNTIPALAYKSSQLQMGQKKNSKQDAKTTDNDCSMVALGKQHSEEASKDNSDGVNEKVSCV
Text: Receptor Selection and Amplification (R-SAT) Assays. […] The IC50 determined in the RSAT assay was converted into a Ki value using the method of Cheng and Prussoff, Biochem Pharmacol., 1973 Dec. 1; 22(23):3099-108. pKi is the negative of the log(Ki).

T1 sequence (Q12809 whole entry): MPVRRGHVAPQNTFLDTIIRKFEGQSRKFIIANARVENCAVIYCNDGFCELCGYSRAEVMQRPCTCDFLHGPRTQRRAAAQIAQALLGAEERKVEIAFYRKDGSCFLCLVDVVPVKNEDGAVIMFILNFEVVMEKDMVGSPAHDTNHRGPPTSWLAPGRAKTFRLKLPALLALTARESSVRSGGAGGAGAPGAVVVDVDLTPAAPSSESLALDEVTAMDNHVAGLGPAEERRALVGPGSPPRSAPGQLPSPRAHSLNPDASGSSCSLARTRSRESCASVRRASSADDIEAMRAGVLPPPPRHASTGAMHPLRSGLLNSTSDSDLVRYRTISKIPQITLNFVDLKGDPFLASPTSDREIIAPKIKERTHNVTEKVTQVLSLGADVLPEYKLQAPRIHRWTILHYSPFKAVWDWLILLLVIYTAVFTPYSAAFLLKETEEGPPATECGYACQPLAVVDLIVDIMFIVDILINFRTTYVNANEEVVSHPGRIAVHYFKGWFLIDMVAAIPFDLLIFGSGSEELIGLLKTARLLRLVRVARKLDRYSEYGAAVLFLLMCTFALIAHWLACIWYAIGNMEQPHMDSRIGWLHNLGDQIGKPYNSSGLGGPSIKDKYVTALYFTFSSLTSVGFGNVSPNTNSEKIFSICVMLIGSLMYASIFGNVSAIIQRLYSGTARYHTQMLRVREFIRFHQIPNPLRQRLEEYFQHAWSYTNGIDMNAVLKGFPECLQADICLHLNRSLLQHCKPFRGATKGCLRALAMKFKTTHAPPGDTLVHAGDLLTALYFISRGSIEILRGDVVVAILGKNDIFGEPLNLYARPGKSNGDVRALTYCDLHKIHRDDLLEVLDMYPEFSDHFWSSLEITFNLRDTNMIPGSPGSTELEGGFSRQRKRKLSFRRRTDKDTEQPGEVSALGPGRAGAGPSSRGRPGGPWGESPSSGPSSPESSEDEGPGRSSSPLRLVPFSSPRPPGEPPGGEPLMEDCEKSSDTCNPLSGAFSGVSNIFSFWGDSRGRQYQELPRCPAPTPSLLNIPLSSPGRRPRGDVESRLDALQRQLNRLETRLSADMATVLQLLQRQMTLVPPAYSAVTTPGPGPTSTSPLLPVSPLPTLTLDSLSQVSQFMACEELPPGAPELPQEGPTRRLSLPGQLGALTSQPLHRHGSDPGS

CCOc1ccc(CNC(=O)N(Cc2ccc(F)cc2F)C2CCN(C)CC2)cc1 [Example 16, 1-[(2,4-difluorophenyl)methyl]-3-[(4-ethoxyphenyl)methyl]-1-(1-methylpiperidin-4-yl)urea]
inhibition at 1 µM (hERG channel): 29% | Ki (5HT2A): 2 nM

CC(C)COc1ccc(CNC(=O)N(Cc2ccc(F)cc2O)C2CCN(C)CC2)cc1 [Example 13, 1-[(4-fluoro-2-hydroxyphenyl)methyl]-1-(1-methylpiperidin-4-yl)-3-{[4-(2-methylpropoxy)phenyl]methyl}urea]
inhibition at 1 µM (hERG channel): 34% | Ki (5HT2A): 0.0794 nM

CN1CCC(N(Cc2ccc(F)cc2F)C(=O)NCc2ccc3c(c2)CC(C)(C)O3)CC1 [Example 8, 1-[(2,4-difluorophenyl)methyl]-3-[(2,2-dimethyl-2,3-dihydro-1-benzofuran-5-yl)methyl]-1-(1-methylpiperidin-4-yl)urea]
inhibition at 1 µM (hERG channel): 22% | Ki (5HT2A): 0.794 nM

CN1CCC(N(Cc2ccc(F)cc2F)C(=O)NCc2ccc(C(C)(F)F)cc2)CC1 [Example 152, 1-{[4-(1,1-difluoroethyl)phenyl]methyl}-3-[(2,4-difluorophenyl)methyl]-3-(1-methylpiperidin-4-yl)urea; Trifluoroacetic Acid]
inhibition at 1 µM (hERG channel): 38% | Ki (5HT2A): 2.51 nM

CN1CCC(N(Cc2ccc(F)cc2F)C(=O)NCc2ccc(OC(C)(C)C)cc2)CC1 [Example 18, 3-{[4-(tert-butoxy)phenyl]methyl}-1-[(2,4-difluorophenyl)methyl]-1-(1-methylpiperidin-4-yl)urea]
inhibition at 1 µM (hERG channel): 17% | Ki (5HT2A): 0.316 nM

CC(C)COc1ccc(CNC(=O)N(Cc2ccc(F)cc2F)C2CCNCC2)cc1 [Example 4, 1-[(2,4-difluorophenyl)methyl]-3-{[4-(2-methylpropoxy)phenyl]methyl}-1-(piperidin-4-yl)urea]
inhibition at 1 µM (hERG channel): 11% | Ki (5HT2A): 2.51 nM

CN1CCC(N(Cc2ccc(F)cc2F)C(=O)NCc2ccc3c(c2)COC3)CC1 [Example 95, 1-[(2,4-difluorophenyl)methyl]-3-[(1,3-dihydro-2-benzofuran-5-yl)methyl]-1-(1-methylpiperidin-4-yl)urea; Trifluoroacetic Acid]
inhibition at 1 µM (hERG channel): 8% | Ki (5HT2A): 50.1 nM

CN1CCC(N(Cc2ccc(F)cc2F)C(=O)NCc2ccc3c(c2)CCO3)CC1 [Example 10, 1-[(2,4-difluorophenyl)methyl]-3-[(2,3-dihydro-1-benzofuran-5-yl)methyl]-1-(1-methylpiperidin-4-yl)urea]
inhibition at 1 µM (hERG channel): 10% | Ki (5HT2A): 1 nM

Cc1ccc(CN(C(=O)NCc2ccc(OC(C)C)cc2)C2CCN(C)CC2)c(F)c1 [Example 115, 1-[(2-fluoro-4-methylphenyl)methyl]-1-(1-methylpiperidin-4-yl)-3-{[4-(propan-2-yloxy)phenyl]methyl}urea; Trifluoroacetic Acid]
inhibition at 1 µM (hERG channel): 49% | Ki (5HT2A): 0.316 nM

CN1CCC(N(Cc2ccc(F)cc2F)C(=O)NCc2ccc(OCCF)cc2)CC1 [Example 15, 1-[(2,4-difluorophenyl)methyl]-3-{[4-(2-fluoroethoxy)phenyl]methyl}-1-(1-methylpiperidin-4-yl)urea]
inhibition at 1 µM (hERG channel): 19% | Ki (5HT2A): 3.16 nM

CC(C)COc1ccc(CNC(=O)N(Cc2ccc(F)cc2)C2CCN(C)CC2)cc1F [Example 6, 3-{[3-fluoro-4-(2-methylpropoxy)phenyl]methyl}-1-[(4-fluorophenyl)methyl]-1-(1-methylpiperidin-4-yl)urea]
inhibition at 1 µM (hERG channel): 70% | Ki (5HT2A): 2 nM

C#CCOc1ccc(CNC(=O)N(Cc2ccc(F)cc2F)C2CCN(C)CC2)cc1 [Example 148, 1-[(2,4-difluorophenyl)methyl]-1-(1-methylpiperidin-4-yl)-3-{[4-(prop-2-yn-1-yloxy)phenyl]methyl}urea; Trifluoroacetic Acid]
inhibition at 1 µM (hERG channel): 33% | Ki (5HT2A): 2 nM

CN1CCC(N(Cc2ccc(F)cc2F)C(=O)NCc2ccc3occc3c2)CC1 [Example 20, 3-[(1-benzofuran-5-yl)methyl]-1-[(2,4-difluorophenyl)methyl]-1-(1-methylpiperidin-4-yl)urea]
inhibition at 1 µM (hERG channel): 30% | Ki (5HT2A): 1.58 nM

CN1CCC(N(Cc2ccc(F)cc2F)C(=O)NCc2ccc(OCCCF)cc2)CC1 [Example 151, 3-[(2,4-difluorophenyl)methyl]-1-{[4-(3-fluoropropoxy)phenyl]methyl}-3-(1-methylpiperidin-4-yl)urea; Trifluoroacetic Acid]
inhibition at 1 µM (hERG channel): 16% | Ki (5HT2A): 2 nM

CC(C)Oc1ccc(CNC(=O)N(Cc2ccc(F)cc2Cl)C2CCN(C)CC2)cc1 [Example 61]
inhibition at 1 µM (hERG channel): 23% | Ki (5HT2A): 15.8 nM

CC(C)(C)Oc1ccc(CNC(=O)N(Cc2ccc(F)cc2F)C2CCNCC2)cc1 [Example 149, 3-{[4-(tert-butoxy)phenyl]methyl}-1-[(2,4-difluorophenyl)methyl]-1-(piperidin-4-yl)urea; Trifluoroacetic Acid]
inhibition at 1 µM (hERG channel): 40% | Ki (5HT2A): 1 nM

CC(C)Oc1ccc(CNC(=O)N(Cc2ccc(Cl)cc2F)C2CCN(C)CC2)cc1 [Example 137, 1-[(4-chloro-2-fluorophenyl)methyl]-1-(1-methylpiperidin-4-yl)-3-{[4-(propan-2-yloxy)phenyl]methyl}urea; Trifluoroacetic Acid]
inhibition at 1 µM (hERG channel): 37% | Ki (5HT2A): 3.98 nM

CC(C)COc1ccc(CNC(=O)N(Cc2ccc(F)cc2Cl)C2CCN(C)CC2)cc1 [Example 62]
inhibition at 1 µM (hERG channel): 32% | Ki (5HT2A): 79.4 nM

CC(C)Oc1ccc(CNC(=O)N(Cc2ccc(F)cc2F)C2CCN(C)CC2)cc1F [Example 143, 1-[(2,4-difluorophenyl)methyl]-3-{[3-fluoro-4-(propan-2-yloxy)phenyl]methyl}-1-(1-methylpiperidin-4-yl)urea; Trifluoroacetic Acid]
inhibition at 1 µM (hERG channel): 41% | Ki (5HT2A): 0.501 nM

Cc1cc(CNC(=O)N(Cc2ccc(F)cc2F)C2CCN(C)CC2)ccc1OC(C)C [Example 145, 1-[(2,4-difluorophenyl)methyl]-3-{[3-methyl-4-(propan-2-yloxy)phenyl]methyl}-1-(1-methylpiperidin-4-yl)urea; Trifluoroacetic Acid]
inhibition at 1 µM (hERG channel): 39% | Ki (5HT2A): 1.58 nM

CC(C)COc1ccc(CNC(=O)N(Cc2ccc(Cl)cc2F)C2CCN(C)CC2)cc1 [Example 139, 1-[(4-chloro-2-fluorophenyl)methyl]-1-(1-methylpiperidin-4-yl)-3-{[4-(2-methylpropoxy)phenyl]methyl}urea; Trifluoroacetic Acid]
inhibition at 1 µM (hERG channel): 35% | Ki (5HT2A): 3.98 nM

CC(C)Oc1ccc(CNC(=O)N(Cc2ccc(F)cc2F)C2CCN(C)CC2)c(F)c1 [Example 144, 1-[(2,4-difluorophenyl)methyl]-3-{[2-fluoro-4-(propan-2-yloxy)phenyl]methyl}-1-(1-methylpiperidin-4-yl)urea; Trifluoroacetic Acid]
inhibition at 1 µM (hERG channel): 37% | Ki (5HT2A): 1 nM

CN1CCC(N(Cc2ccc(F)cc2F)C(=O)NCc2ccc3c(c2)C=CC(C)(C)O3)CC1 [Example 155, 1-[(2,4-difluorophenyl)methyl]-3-[(2,2-dimethyl-2H-chromen-6-yl)methyl]-1-(1-methylpiperidin-4-yl)urea; Trifluoroacetic Acid]
inhibition at 1 µM (hERG channel): 47% | Ki (5HT2A): 0.158 nM

CN1CCC(N(Cc2ccc(F)cc2F)C(=O)NCc2ccc(OCC(F)F)cc2)CC1 [Example 154, 3-{[4-(2,2-difluoroethoxy)phenyl]methyl}-1-[(2,4-difluorophenyl)methyl]-1-(1-methylpiperidin-4-yl)urea; Trifluoroacetic Acid]
inhibition at 1 µM (hERG channel): 23% | Ki (5HT2A): 1.26 nM

O=C(NCc1ccc(OC2CC2)cc1)N(Cc1ccc(F)cc1F)C1CCNCC1 [Example 157, 1-[(4-cyclopropoxyphenyl)methyl]-3-[(2,4-difluorophenyl)methyl]-3-(piperidin-4-yl)urea; Trifluoroacetic Acid]
inhibition at 1 µM (hERG channel): 20% | Ki (5HT2A): 0.631 nM
